Measurements: US11173146B2, “Selective activators of the intermediate conductance CA2+activated K+ channel KCa3.1 and their methods of use” (The Regents of the University of California, priority 2014, dated 2021)
“Also recorded” adds a separate entry of the source.

Tests used:
hKV2.1 = biological target: T1, hKV2.1 (Homo sapiens, UniProt Q14721); experiment: KV2.1 current inhibition (HEK293); format: cell-based
T1 construct: host or cells: HEK293
Excerpt: Cells, Cell lines and Clones. HEK-293 cells stably expressing hKCa2.1, rKCa2.2 and hKCa3.1 were obtained from Khaled Houamed (University of Chicago, Ill.) in 2002 and have been maintained in the Wulff laboratory at the University of California since then. The cloning of hKCa2.3 (19 CAG repeats) and hKCa3.1 has been previously described (Wulff et al., 2000). The hKCa2.3 clone was later stably expressed in COS-7 cells at Aurora Biosciences Corp., San Diego, Calif. […]
Electrophysiology. […] For manual experiments COS-7, HEK-293 or L929 cells were trypsinized, plated onto poly-L-lysine coated coverslips and typically recorded from between 20 min and 4 h after plating. […] Free Ca^2+ concentrations were calculated with MaxChelator assuming a temperature of 25° C., a pH of 7.2 and an ionic strength of 160 mM. To reduce contaminating currents from native chloride channels in COS-7 cells, KCa2.3 currents were recorded with an internal pipette solution containing (in mM): 145 K^+ aspartate, 2 MgCl2, 10 HEPES, 10 EGTA and 7.4 CaCl2 (500 nM free Ca^2+), pH 7.2, 290-310 mOsm. […] KV2.1, Kv1.3, and KV3.1 currents were recorded in normal Ringer solution with a Ca^2+-free KF-based pipette solution as previously described (Schmitz et al., 2005). HERG (KV11.1) currents were recorded with a 2-step pulse from −80 mV first to 20 mV for 1 sec and then to −50 mV for 1 sec. […]

logP = format: physicochemical
KCa3.1−/− mice = experiment: Telemetry in KCa3.1−/− mice; conditions: 100 mg/kg i.p.
hKCa2.1 = hKCa2.1 (Homo sapiens, UniProt P0DP23+Q92952); experiment: Whole-cell patch-clamp KCa2.1 activation (HEK-293)
KCa3.1 = KCa3.1 (Homo sapiens, UniProt O15554+P0DP23); experiment: Inside-out patch Ca2+ concentration-response of KCa3.1

T1 sequence (Q14721 whole entry): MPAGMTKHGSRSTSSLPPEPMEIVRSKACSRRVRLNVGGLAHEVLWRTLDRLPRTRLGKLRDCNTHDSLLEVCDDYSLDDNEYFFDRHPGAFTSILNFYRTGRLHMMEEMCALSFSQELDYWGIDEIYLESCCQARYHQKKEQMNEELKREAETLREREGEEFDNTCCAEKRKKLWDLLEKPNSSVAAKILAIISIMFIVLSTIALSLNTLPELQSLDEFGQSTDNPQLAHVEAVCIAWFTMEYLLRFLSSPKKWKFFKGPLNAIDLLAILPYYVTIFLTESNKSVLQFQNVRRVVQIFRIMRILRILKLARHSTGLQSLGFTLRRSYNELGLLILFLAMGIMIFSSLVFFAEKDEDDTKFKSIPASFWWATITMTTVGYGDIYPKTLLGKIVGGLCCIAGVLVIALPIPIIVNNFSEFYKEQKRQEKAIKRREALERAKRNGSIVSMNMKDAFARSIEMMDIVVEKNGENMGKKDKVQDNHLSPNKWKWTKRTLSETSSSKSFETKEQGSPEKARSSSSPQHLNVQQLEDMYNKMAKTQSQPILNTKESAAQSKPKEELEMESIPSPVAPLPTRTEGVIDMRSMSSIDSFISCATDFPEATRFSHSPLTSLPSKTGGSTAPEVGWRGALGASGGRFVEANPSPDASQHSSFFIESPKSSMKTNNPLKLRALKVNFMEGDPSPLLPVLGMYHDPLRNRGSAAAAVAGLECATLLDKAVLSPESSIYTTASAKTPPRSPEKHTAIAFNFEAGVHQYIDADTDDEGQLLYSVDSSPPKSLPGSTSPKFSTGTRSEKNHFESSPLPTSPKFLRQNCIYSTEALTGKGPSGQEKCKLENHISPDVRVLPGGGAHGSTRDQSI

Q: For `Cc1cc2sc(N)nc2c2ccccc12` [SKA-111, 5-methylnaphtho[1,2-d]thiazol-2-amine], which inhibition at 25 µM (hKV2.1; at 25 μM) is on record?
A: The inhibition at 25 µM was 37.3 ± 9%.

Q: Which inhibition at 50 µM (hKV2.1; at 50 μM) does the source give for `Cc1cc2nc(N)oc2c2ccccc12` [SKA-121, 5-Methylnaphtho[2,1-d]oxazol-2-amine] here?
A: The inhibition at 50 µM was 43.2 ± 12.5%.

Q: And the logP (logP)?
A: Its logP is 1.79.

Q: What about the “HR” value (KCa3.1−/− mice) of the same molecule?
A: Its value is “did not; also recorded: no significant effects”.

Q: And the “MAP” value (KCa3.1−/− mice)?
A: Its value is “did not; also recorded: no significant effects”.

Q: And the EC50 (hKCa2.1)?
A: The EC50 was 8.7 ± 1.6 µM.

Q: And the “Hill coefficient nH, KCa2.1 concentration-response curve” value (hKCa2.1; FIG. 4 legend)?
A: The value was 4.1.

Q: What about the “maximal achievable KCa3.1 current” value (KCa3.1; 1 μM SKA-121, at 1 and 10 μM Ca2+) of the same molecule?
A: Its value is “increased the maximal achievable current”.

Q: What about the “Hill coefficient of the Ca2+ concentration-response curve” value (KCa3.1; in presence of 1 μM SKA-121) of the same molecule?
A: Its value is about 3.
